Like-named read-outs stand apart in the source and are kept apart here.
Tests used:
μ-opioid receptor = biological target: T1, μ-opioid receptor (Homo sapiens, UniProt P35372); assay: biochemical; format: binding
T1 construct: expressed in transfected cells; host or cells: HEK-293 cells

[1] = male, Sprague-Dawley, rat, in vivo, 20 mg/kg
[2] = format: physicochemical

T1 sequence (P35372 whole entry): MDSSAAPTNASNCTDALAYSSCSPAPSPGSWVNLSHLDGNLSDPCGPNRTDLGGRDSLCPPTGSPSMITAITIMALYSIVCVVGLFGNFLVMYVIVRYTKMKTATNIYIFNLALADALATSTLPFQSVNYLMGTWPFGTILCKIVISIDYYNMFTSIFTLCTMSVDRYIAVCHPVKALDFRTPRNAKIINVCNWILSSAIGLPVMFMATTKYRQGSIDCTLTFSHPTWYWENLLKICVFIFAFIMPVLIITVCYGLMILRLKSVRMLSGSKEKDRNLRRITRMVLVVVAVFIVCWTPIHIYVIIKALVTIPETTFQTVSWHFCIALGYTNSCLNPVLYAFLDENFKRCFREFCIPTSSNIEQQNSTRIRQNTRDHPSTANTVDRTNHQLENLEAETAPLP

Structure (SMILES): CN(CCNC(=O)[C@@H](N)CCCNC(=N)N)C(=O)Oc1ccc(C[N@@+]2(C)CC[C@]34c5c6ccc(O)c5O[C@H]3C(=O)CC[C@H]4[C@H]2C6)cc1 [Example 1]
- IC50 (μ-opioid receptor): 250 nM

Structure (SMILES): COc1ccc2c3c1O[C@H]1C(=O)CC[C@H]4[C@@H](C2)N(C)CC[C@]314 [Hydrocodone]
- Cmax HC (ng/ml) following PO dosing [1]: 23.6 ng/mL

Structure (SMILES): CN(CCN)C(=O)Oc1ccc(C[N+]2(C)CC[C@]34c5c6ccc(O)c5OC3C(=O)CCC4[C@H]2C6)cc1.Cl.[Cl-] (stereo partly shown) [Compound A]
- % production of hydromorphone 20 hrs ([2]; pH 7.5): 70%
- % production of hydromorphone 20 hrs ([2]; pH 10): 100%
